What was measured:
Format in all cases: in vivo
Setaria viridis [1] = test: Pre-emergence herbicidal effect; settings: 320 g/ha, scored visually after 3 weeks vs untreated controls, 100% = plants have died
Text: (§1) Seeds of monocotyledonous and dicotyledonous weed plants and crop plants are laid out in sandy loam soil in wood-fibre pots and covered with soil. The compounds of the invention, formulated in the form of wettable powders (WP) or as emulsion concentrates (EC), are then applied to the surface of the covering soil as aqueous suspension or emulsion at a water application rate equating to 600 to 800 L/ha with addition of 0.2% wetting agent. After the treatment, the pots are placed in a greenhouse and kept under good growth conditions for the trial plants. The damage to the test plants is scored visually after a test period of 3 weeks by comparison with untreated controls (herbicidal activity in percent (%): 100% activity=the plants have died, 0% activity=like control plants). SETVI: Setaria viridis

Alopecurus myosuroides [2] = test: Pre-emergence herbicidal effect; settings: 320 g/ha, scored visually after 3 weeks vs untreated controls, 100% = plants have died
Text: as §1, with “ALOMY: Alopecurus myosuroides” for “SETVI: Setaria viridis”

Avena fatua [3] = test: Post-emergence herbicidal effect; settings: one-leaf stage, 320 g/ha, assessed visually after about 3 weeks, 100% = plants have died
Description: (§2) AVEFA: Avena fatua Seeds of monocotyledonous and dicotyledonous weed and crop plants are laid out in sandy loam soil in wood-fibre pots, covered with soil and cultivated in a greenhouse under good growth conditions. 2 to 3 weeks after sowing, the test plants are treated at the one-leaf stage. The compounds of the invention, formulated in the form of wettable powders (WP) or as emulsion concentrates (EC), are then sprayed onto the green parts of the plants as aqueous suspension or emulsion at a water application rate equating to 600 to 800 L/ha with addition of 0.2% wetting agent. After the test plants have been left to stand in the greenhouse under optimal growth conditions for about 3 weeks, the action of the preparations is assessed visually in comparison to untreated controls (herbicidal action in percent (%): 100% activity=the plants have died, 0% activity=like control plants).

Setaria viridis [4] = test: Post-emergence herbicidal effect; settings: one-leaf stage, 320 g/ha, assessed visually after about 3 weeks, 100% = plants have died
Description: as §2, with “SETVI: Setaria viridis” for “AVEFA: Avena fatua”

Lolium multiflorum [5] = test: Pre-emergence herbicidal effect; settings: 320 g/ha, scored visually after 3 weeks vs untreated controls, 100% = plants have died
Text: as §1, with “LOLMU: Lolium multiflorum” for “SETVI: Setaria viridis”

Alopecurus myosuroides [6] = test: Post-emergence herbicidal effect; settings: one-leaf stage, 320 g/ha, assessed visually after about 3 weeks, 100% = plants have died
Description: as §2, with “ALOMY: Alopecurus myosuroides” for “AVEFA: Avena fatua”

Echinochloa crus-galli [7] = test: Post-emergence herbicidal effect; settings: one-leaf stage, 320 g/ha, assessed visually after about 3 weeks, 100% = plants have died
Description: as §2, with “ECHCG: Echinochloa crus-galli” for “AVEFA: Avena fatua”

Lolium multiflorum [8] = test: Post-emergence herbicidal effect; settings: one-leaf stage, 320 g/ha, assessed visually after about 3 weeks, 100% = plants have died
Description: as §2, with “LOLMU: Lolium multiflorum” for “AVEFA: Avena fatua”

Avena fatua [9] = test: Pre-emergence herbicidal effect; settings: 320 g/ha, scored visually after 3 weeks vs untreated controls, 100% = plants have died
Text: as §1, with “AVEFA: Avena fatua” for “SETVI: Setaria viridis”

Echinochloa crus-galli [10] = test: Pre-emergence herbicidal effect; settings: 320 g/ha, scored visually after 3 weeks vs untreated controls, 100% = plants have died
Text: as §1, with “ECHCG: Echinochloa crus-galli” for “SETVI: Setaria viridis”

Row | Compound | Pre-emergence action SETVI (herbicidal activity in percent) (Setaria viridis [1]) [%] | Pre-emergence action ALOMY (herbicidal activity in percent) (Alopecurus myosuroides [2]) [%] | Post-emergence effectiveness AVEFA (herbicidal action in percent) (Avena fatua [3]) [%] | Post-emergence effectiveness SETVI (herbicidal action in percent) (Setaria viridis [4]) [%] | Pre-emergence action LOLMU (herbicidal activity in percent) (Lolium multiflorum [5]) [%] | Post-emergence effectiveness ALOMY (herbicidal action in percent) (Alopecurus myosuroides [6]) [%] | Post-emergence effectiveness ECHCG (herbicidal action in percent) (Echinochloa crus-galli [7]) [%] | Post-emergence effectiveness LOLMU (herbicidal action in percent) (Lolium multiflorum [8]) [%] | Pre-emergence action AVEFA (herbicidal activity in percent) (Avena fatua [9]) [%] | Pre-emergence action ECHCG (herbicidal activity in percent) (Echinochloa crus-galli [10]) [%]
1 | Cc1cc(C)c(C2=C(O)C3CCOCCN3C2=O)c(C)c1 (centres unmarked) [Ia-1-1] | 90 | 100 | 100 | 100 | 100 | 100 | 100 | 100 | 100 | 100
2 | CCc1cc(C)cc(C)c1C1=C(O)C2CCOCCN2C1=O (centres unmarked) [Ia-1-2] | 100 | 100 | 100 | 100 | 100 | 100 | 100 | 100 | 100 | 100
3 | CCc1cccc(C)c1C1=C(O)C2CCOCCN2C1=O (centres unmarked) [Ia-1-4] | 100 | 80 | 100 | 100 | 100 | 100 | 100 | 100 | 100 | 100
4 | CCc1cc(Cl)cc(OC)c1C1=C(O)C2CCOCCN2C1=O (centres unmarked) [Ia-1-6] | 100 | 100 | 100 | 100 | 100 | 100 | 100 | 100 | 100 | 100
5 | CCc1cc(Cl)cc(OC)c1C1=C(O)C2=CCOCCN2C1=O [Ia-3-4] | 100 | 80 | 100 | 100 | 90 | 100 | 100 | 100 | 80 | 90
6 | CCOC(=O)OC1=C(c2c(CC)cc(C)cc2CC)C(=O)N2CCOCCC12 (centres unmarked) [Ib-1-2] | 100 | 100 | 100 | 100 | 100 | 100 | 100 | 100 | 100 | 100
7 | CCc1cc(C)cc(CC)c1C1=C(OC(=O)C(C)(C)C)C2CCOCCN2C1=O (centres unmarked) [Ib-1-3] | 100 | 100 | 100 | 100 | 100 | 100 | 100 | 100 | 100 | 100
8 | CCc1cc(C)cc(CC)c1C1=C(OC(C)=O)C2CCOCCN2C1=O (centres unmarked) [Ib-1-4] | 100 | 100 | 100 | 100 | 100 | 100 | 100 | 100 | 100 | 100
